# According to the OligoGym collection:
# These antisense oligonucleotides have a phosphorothioate backbone; sugars and methylation of C are not fully specified.
# Molecular target: SRA1
# Details: ASO
# Further: test concentration or dose not given here.
row,Sequence,remaining target (mRNA or protein) (fraction of control)
1,AAAACAGACTCCTCTTTT,0.54
2,AAACTTGTGGGCTCCACG,0.18
3,AACCGAGGATTATGAAGC,0.57
4,AACTGCGGCGGGTCGTTC,≥ 1
5,AACTTTCCTCCAGCCCAC,0.21
6,AAGGAGGTGGAGGCCCCA,0.72
7,ACACATGAACTCCCTCTG,0.77
8,ACATACCTGCTTCCTTGT,≥ 1
9,ACATGGTCAACCATGAGG,0.54
10,ACCACTCCCCACAGGTGG,≥ 1
11,ACCATCCACTGACTGACC,≥ 1
12,ACCCTCTTGGTAAGCAGC,≥ 1
13,ACCTGCTTCCTTGTGTGG,0.32
14,ACGCCAGAGGCAGGACCA,0.55
15,ACTGGGAAACTTGTGGGC,≥ 1
16,AGAGGCAGGACCACTCCC,0.92
17,AGCGGTGGATGTCATCTG,0.65
18,AGGCCCAGGAGAAGTCTC,0.61
19,AGTCGAGCCTCAGACTCG,0.72
20,ATCCTCCATCAGTCGAGC,≥ 1
21,ATCTGCTGCGTCCCACCG,0.9
22,ATGAGGGAGCGGTGGATG,≥ 1
23,ATGCATGTTATGAGTAAC,≥ 1
24,ATTTGAGGAGATGGTGTC,0.94
25,CAACTTTCCTCCAGCCCA,0.41
26,CAATGCCTGTTCCAAAGG,0.91
27,CAGAGGTTTGCAGATACA,0.35

row,Sequence,remaining target (mRNA or protein) (fraction of control)
1,CAGCACATCCTCCATCAG,0.61
2,CAGGGAGCAGGGCAGTCG,0.35
3,CAGTGCCAGGCGTCGGCT,0.66
4,CATCACATACCTGCTTCC,0.68
5,CATCCAAACACAGCTGCT,0.39
6,CATGGTCAACCATGAGGG,≥ 1
7,CCACCGGTGGCTTGAAAG,0.85
8,CCAGCAGATCCCTTCCTG,≥ 1
9,CCAGCCGCGTTCCTTGTT,0.69
10,CCAGTAGAGCCATTCTCT,0.83
11,CCATTCTCTTCTTTACAG,0.6
12,CCCCACTCAATGTGGTTC,0.31
13,CCCGGCTTCACGTACAGC,0.63
14,CCGCGTTCCTTGTTGCCG,0.94
15,CCTCTGAAAACAGACTCC,0.71
16,CCTGCTGGAAGCCTGGTA,≥ 1
17,CCTGCTTCCTTGTGTGGC,0.66
18,CCTGGGTCCGCCGGCCTG,0.86
19,CCTTGTGTGGCCACGGCA,0.43
20,CGAGCGCCTGGGTCCGCC,0.48
21,CGGCAGTCTTCCAATGCC,≥ 1
22,CGTATGAGAACTGCGGCG,≥ 1
23,CGTCGGCTGATGTCATCA,0.61
24,CTCAGCTGTGGCTGCAGA,≥ 1
25,CTCCAGCCCACTGTTCCT,≥ 1
26,CTCCATCAGTCGAGCCTC,≥ 1
27,CTCCTACCATCCACTGAC,0.46

row,Sequence,remaining target (mRNA or protein) (fraction of control)
1,CTCGACTGGGAAACTTGT,0.63
2,CTCTGGCCCAGGTGGGAC,0.55
3,CTGAAAACAGACTCCTCT,0.56
4,CTGACCTCAGTCACATGG,≥ 1
5,CTGCTGCGTCCCACCGGT,0.21
6,CTGCTGGAAGCCTGGTAT,0.77
7,CTTCATTGGCTGCCTCCT,0.2
8,CTTCCCTCATAGGTGGGT,≥ 1
9,CTTTCCTCCAGCCCACTG,0.36
10,CTTTCCTTTTGTTGAGGG,≥ 1
11,CTTTTAACTCCTACCATC,0.43
12,CTTTTCTGCAATTAATCT,0.61
13,GACACCAGAGGGACTAGC,0.73
14,GACCACTCCCCACAGGTG,≥ 1
15,GAGCCTCAGACTCGACTG,0.65
16,GAGGCCCAGGAGAAGTCT,0.62
17,GAGGCCCGGAACTCCACT,0.89
18,GAGGGAGCGGTGGATGTC,0.48
19,GAGGGTCCATACTAAGCG,0.53
20,GCACCAGTAGAGCCATTC,0.3
21,GCCAGAGGCAGGACCACT,0.72
22,GCCAGGCGTCGGCTGATG,0.38
23,GCTCCACGCCAGAGGCAG,0.49
24,GCTCCGCCCAGCACAGGA,0.37
25,GCTGTGGCTGCAGATTTC,0.48
26,GCTTGAAAGCTCTTGCAC,≥ 1

# Molecular target: not given
# Details: ASO
row,Sequence,remaining target (mRNA or protein) (fraction of control)
1,GGGTCCGTTCCCTCAACA,≥ 1
2,GGTAGGTCGTAGAAGATG,≥ 1
3,GGTGGTGGAGTGCATAAGAG,0.98
4,GTAAGTCCAGGAGATAGC,0.86
5,GTAGATGAGGGCGATCAC,≥ 1
6,GTCCAGCCACTGCAGTGGCC,0.82
7,GTCCAGGTAGCGGGCGAG,≥ 1
8,GTCCCAGAACCCTGCCCA,≥ 1
9,GTCCCCCGACTCCCTTGC,0.27
10,GTCCCTGCACCCCTAGTC,≥ 1
11,GTCTTCAGTGTTTTCATT,≥ 1
12,GTGGAGTGCATAAGAGGCCA,0.84
13,GTGGTTGCGTGCCGATTCAC,0.5
14,GTGTAGTGGCTGAAAAGG,≥ 1
15,GTTCATTCCATTCAGTTG,0.87
16,GTTCCAGGATAGTCCCAA,0.34
17,GTTGATCTCGTCCAGGTA,0.28
18,TAAGAGGCCACAGCAGGCTC,0.42
19,TAGATGCACTTGGAGCGA,≥ 1
20,TATTATCGAGTGACTGGT,≥ 1
21,TCAACTTCTTTTGCCGAA,0.62

row,Sequence,remaining target (mRNA or protein) (fraction of control)
1,TCACAGCAGGTTGATCTC,≥ 1
2,TCAGCATCCTGCTTAGGG,≥ 1
3,TCATGGCCCGCATGGACA,0.7
4,TCCATTTCTTACGCTCTG,≥ 1
5,TCCCAGGGTGTGCGTCAC,≥ 1
6,TCCTTGCCTGAAACACCC,≥ 1
7,TCGGCGGTGGCAAGGCTT,0.97
8,TCTCCTCCAGGCACTGGT,0.18
9,TCTCCTTCATGCGGTTCT,0.61
10,TGAAGATGAATCTCAATCCA,0.88
11,TGATTTCTTCACCTTTTC,≥ 1
12,TGCACCAGTGGCTCGGCT,≥ 1
13,TGCATAAGAGGCCACAGCAG,0.44
14,TGCGCTCCTCCTCCGAGT,≥ 1
15,TGCTGTCACTCACGCACTCG,0.57
16,TGCTTGTGGGCCGCGATT,0.24
17,TGGAGAGATAGACCAGGA,0.67
18,TGGGGGTGGTGGAGTGCATA,0.53
19,TGGTGGAGTGCATAAGAGGC,0.47
20,TGTCCTGGTGAGAGGCAG,0.73
21,TGTCTGGGTCCACCGTGC,0.45

row,Sequence,remaining target (mRNA or protein) (fraction of control)
1,TGTGGGCCGAGGCTGGAG,0.85
2,TGTTAAGACACTGAAGAAAT,≥ 1
3,TTACGCTCTGACTTCTGG,0.81
4,TTATAAGCCAAAGTGCGT,≥ 1
5,TTATTCATACCGTTGTTG,0.96
6,TTCAAGTCTTCTTCCAAT,0.85
7,TTCAATGGCTTCCACGAG,0.94
8,TTCGCCGCACCGACTCGC,0.9
9,TTCTCATCCTCCGTCAGG,≥ 1
10,TTCTCCTCCAGGCACTGG,≥ 1
11,TTCTCCTGTCCACTAGAG,0.98
12,TTCTGGCACTTTCTATGA,0.72
13,TTCTGTGTGTCTGTGGCA,0.19
14,TTGCCCAACCACTCGTTC,0.45
15,TTGCTCTCGGGCCTGCTG,0.21
16,TTGGTATCGATAGCACTACA,0.96
17,TTTCTATCGTTGAGTTTCTG,≥ 1
18,TTTCTCATTGCCTTCACG,≥ 1
19,TTTCTGCACGGAGAAGCA,0.26
